Test results: US8828993B2, “Psychotropic agents having glutamate NMDA activity” (Ramot At Tel-Aviv University Ltd., priority 2006, dated 2014)
Structures can show the parent of a compound that is named as a salt.

Columns and labels:
[1] = tested on: mice; assay: Open field exploratory locomotor activity; type: in vivo; conditions: for sedative effect: mice, i.p.
From the text: Open Field Exploratory Locomotor Activity
The procedure consists of subjecting an animal, usually a rodent, to an unknown large environment from which escape is prevented by surrounding walls. The open field test is now one of the most popular procedures in animal psychology (Crawley, et al., Exploratory behavior models of anxiety in mice, Neurosci Biobehav Rev 9 (1985), pp. 37-44). The procedure involves forced confrontation of a rodent with the situation. The animal is placed in the center or close to the walls of the apparatus and the following behavioral items are recorded for a period ranging from 5 to 20 minutes: horizontal locomotion, and frequency of rearing or leaning. In such a situation, rodents spontaneously prefer the periphery of the apparatus to activity in the central parts of the open field. Increase in time spent in the central part as well as of the ratio central/total locomotion or decrease of the latency to enter the central part are indications of anxiolysis.
In a typical test, an individual mouse was placed in a novel environment of a square open field (50×50 cm), the floor of which had been divided into 3 areas, as shown below. The area within 10 cm of the chamber walls was termed the periphery. […] One hour after drug administration, the animal was placed in the same corner of the field. The animal behavior in the open field was recorded by videotaping for 20-60 minutes and analyzed subsequently digitally using the Noldus software for animal behavior. The measurements included velocity, distance moved, frequency of visits to the central area, number of rearing events.
The effect of Compound 1 on the behavior of mice in the open field and the dose-dependent effect following i.p administration were evaluated. Naïve male Mice (Balb/c, Harlan Israel) were used. The animals, divided 3 to 5 animals per group, were administered with Compound 1 (12.5, 25, 50, 75 and 100 mg/kg) 1 hr prior to placing each in an open field. Mice were monitored for 1 hr (every 5 minutes) using the Noldus system, and their distance moved, velocity, time of immobility and number of rearings was recorded.
(§1) The effect of Compound 6 on the behavior of mice in the open field was also examined. Naïve male mice (Balb/c, Harlan Israel) were used. Animals (6 per group) were administered with Compound 6 (12.5, 25 and 50 mg/kg, i.p.) 1 hr prior to placing each in the open field. Mice were followed for 1 hr (every 5 minutes) using the Noldus system, and their distance moved, velocity, time of immobility and number of rearings was recorded.
The effect of oral administration of Compound 1 in the open field was tested by orally administering to male ICR mice varying amounts of Compound 1 (5, 10 and 20 mg/kg) or vehicle. Animals were placed in the open field 1 hr after drug administration and horizontal and vertical behavior was recorded for 20 minutes.
as §1, with “The dose-dependent” for “The”, “3 administered i.p.” for “6 on the behavior of mice”, “tested.” for “examined.”, “Animals” for “Animals (6 per group)”, “3” for “6”, “i.p., 6 per group)” for “i.p.)”
Animals were administered orally with Compound 1 (5, 10 and 20 mg/kg) or with a vehicle. Animals were placed in the open field 1 hr after drug administration and animal track was registered for 20 minutes. The time spent in the center (zone 3) and the frequency to the center were indicators of anxiety.

[2] = tested on: rats pretreated with MK-801; assay: Morris Water Maze in rats pretreated with MK-801; type: in vivo; conditions: rats pretreated with MK-801 0.15 mg/kg i.p.
Procedure: (§2) The Morris Water Maze is a well known test aimed to assess spatial cognitive tasks (Anger, et al., Animal test systems to study behavioral dysfunctions of neurodegenerative disorders, Neurotoxicology, 12, 403-13 (1991)). The maze consists of a circular pool measuring 1.80 m in diameter 60 cm in height. The pool was filled with water (21±1° C.) to a depth of 30 cm. A circular hidden escape platform (10 cm in diameter) was placed just below the water surface. The test room contained several permanent extra maze cues such as the rat housing rack, laboratory table, posters on the walls, etc.
as §2, with “tasks.” for “tasks (Anger, et al., Animal test systems to study behavioral dysfunctions of neurodegenerative disorders, Neurotoxicology, 12, 403-13 (1991)).”
In the experiment rats were given Compound 1 orally on day 1 and the first test begun 90 minute later, six trials per day, for 3 consecutive days, to find the hidden platform (acquisition phase). The escape latency, i.e., the time required by the rat to find and climb onto the platform, was recorded for up to 120 sec. Each rat was allowed to remain on the platform for 30 sec, after which it was removed to its home cage.
A video camera was placed above the center of the pool for tracking the rat, and a video tracking system (Noldus) with online digital output directly fed data into a computer. Data were analyzed using EthoVision automated tracking system software (Noldus).
Compound 1 at both doses decreased the latency to the platform on day 3 of the experiment but not on days 1 and 2.
The relief of cognitive impairments was also shown in the use of Compound 6. […] Compound 6 at 10 mg/kg decreased the latency to the platform on days 2 and 3 of the experimentation.

[3] = male ICR mice, oral 10 and 20 mg/kg, 1 hr after administration, 20 minutes
[4] = Balb/c mice, 12.5, 25 and 50 mg/kg i.p.

SMILES: COC(=O)C(N)CN1CCN(C2=Nc3ccccc3Nc3sc(C)cc32)CC1 (stereo not shown) [Compound 1, 2-amino-3-[4-(2-methyl-10H-thieno[2,3-b][1,5]benzodiazepin-4-yl)-piperazin-1-yl]-propionic acid, methyl ester hydrochloride salt]
- horizontal and vertical motility parameters ([1]; Balb/c mice, 12.5 mg/kg i.p.): did not modify significantly
- rearing frequency ([1]; Balb/c mice, 12.5 mg/kg i.p.): tended to increase
- sedative effect / motility ([1]; Balb/c mice, doses higher than 50 mg/kg i.p.): marked sedative effect
- horizontal and vertical motility ([1]; Balb/c mice, doses up to 50 mg/kg i.p.): mild inhibition
- horizontal and vertical motility ([1]; Balb/c mice, i.p. 12.5, 25, 50, 75 and 100 mg/kg, 1 hr prior, monitored 1 hr): dose dependent decrease
- anxiety parameters (time spent in the center and frequency to the center) ([1]; male ICR mice, 20 mg/kg p.o., 1 hr before, 20 minutes): anxiolytic activity
- horizontal behavior (velocity and distance moved) [1, 3]: slightly decreased
- vertical behavior (number of rearings) [1, 3]: increased
- sedative effect [1]: mild sedative effect
- latency to the platform ([2]; 10 and 20 mg/kg p.o. on day 1, day 3): decreased

SMILES: CNC(CN1CCN(C2=Nc3ccccc3Nc3sc(C)cc32)CC1)C(=O)OC (stereo not shown) [Compound 6, 2-N-methylamino-3-[4-(2-methyl-10H-thieno[2,3-b][1.5]benzodiazepin-4-yl)-piperazin-1-yl]propionic acid, methyl ester trihydrochloride salt]
- duration of “not moving” periods [1, 4]: increased
- horizontal (distance) and vertical motility (number of rearings) [1, 4]: inhibition
- motility (distance moved and velocity) ([1]; Balb/c mice, 12.5, 25 and 50 mg/kg i.p., 1 hr prior): dose dependent decrease
- effect on motility (distance moved and velocity) ([1]; Balb/c mice, up to 50 mg/kg i.p.): mild
- sedative effect [1]: mild sedative effect
- latency to the platform ([2]; 10 mg/kg p.o. once on day 1, days 2 and 3): decreased
